Experimental data as given in PubChem BioAssay (NCI).
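Tested at 5 concentrations; 48 h exposure; 96-well plates; endpoints linearly interpolated, else capped at highest concentration. TGI denotes the concentration required for complete inhibition of growth.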

Columns and labels:
Assay in all cases: NCI anticancer screen, dose series, 48 h
[1] = system: MOLT-4 leukemia
[2] = system: M14 melanoma
[3] = system: SK-MEL-28 melanoma
[4] = system: NCI-H23 lung
[5] = system: KM12 colon
[6] = system: PC-3 prostate
[7] = system: HCT-15 colon
[8] = system: OVCAR-3 ovarian
[9] = system: NCI-H226 lung
[10] = system: T-47D breast
[11] = system: CAKI-1 renal
[12] = system: NCI-H460 lung
[13] = system: SF-539 CNS
[14] = system: U251 CNS
[15] = system: ACHN renal
[16] = system: NCI/ADR-RES ovarian
[17] = system: LOX IMVI melanoma
[18] = system: IGROV1 ovarian
[19] = system: DU-145 prostate
[20] = system: K-562 leukemia
[21] = system: HCT-116 colon
[22] = system: HOP-62 NSCLC
[23] = system: TK-10 renal
[24] = system: SK-OV-3 ovarian
[25] = system: SNB-19 CNS
[26] = system: HOP-92 NSCLC
[27] = system: UO-31 renal
[28] = system: SF-268 CNS
[29] = system: HCC-2998 colon
[30] = system: HT29 colon
[31] = system: OVCAR-4 ovarian
[32] = system: SK-MEL-2 melanoma
[33] = system: 786-0 renal
[34] = system: NCI-H522 lung
[35] = system: BT-549 breast
[36] = system: HL-60(TB) leukemia
[37] = system: EKVX NSCLC
[38] = system: A498 renal
[39] = system: RPMI-8226 leukemia
[40] = system: A549 NSCLC
[41] = system: UACC-257 melanoma
[42] = system: OVCAR-5 ovarian
[43] = system: MDA-MB-231 breast
[44] = system: CCRF-CEM leukemia
[45] = system: SN12C renal
[46] = system: SF-295 CNS
[47] = system: UACC-62 melanoma
[48] = system: COLO 205 colon
[49] = system: MCF7 breast
[50] = system: OVCAR-8 ovarian
[51] = system: MDA-MB-435
[52] = system: SK-MEL-5 melanoma
[53] = system: MALME-3M melanoma
[54] = system: MDA-N
[55] = system: SR leukemia
[56] = system: HS 578T breast
[57] = system: SW-620 colon
[58] = system: RXF 393 renal
[59] = system: SNB-75 CNS

Measured: TGI

C/C(=N\O)c1cccc(Nc2c3ccccc3nc3occc23)c1
54.8 µM: [9]
18.8 µM: [21]
49.4 µM: [4]
24.1 µM: [35]
55.3 µM: [56]
80.1 µM: [8]
47.9 µM: [26]
52.4 µM: [29]
26.7 µM: [46]
9.3 µM: [11]
83 µM: [50]
59.2 µM: [19]
50.6 µM: [37]
49.1 µM: [47]
28.3 µM: [33]
95.7 µM: [30]
4.83 µM: [34]
17.5 µM: [22]
25.6 µM: [3]
21.1 µM: [13]
44.3 µM: [23]
34 µM: [49]
56.9 µM: [28]
25.2 µM: [32]
13.2 µM: [18]
9.59 µM: [31]
5.73 µM: [51]
9.7 µM: [53]
58.5 µM: [40]
21.7 µM: [10]
36.8 µM: [24]
38.6 µM: [15]
not listed: [57] | [58] | [59]
> 100 µM: all other assays above

CCc1ncc(CO)n1Cc1cccc2ccccc12
not listed: [1] | [17] | [29] | [36] | [44] | [55]
> 100 µM: all other assays above

Cc1c(C#N)c2nc3ccccc3n2c(=O)/c1=C/Nc1ccc(Cl)cc1
24.6 µM: [14]
27.9 µM: [25]
77.9 µM: [43]
20.7 µM: [33]
47.4 µM: [47]
30.5 µM: [13]
32.4 µM: [24]
46.6 µM: [32]
40.9 µM: [2]
25.6 µM: [58]
59.8 µM: [4]
72.5 µM: [38]
70.9 µM: [27]
99.6 µM: [35]
25 µM: [15]
54.5 µM: [56]
33.1 µM: [22]
61.5 µM: [46]
35.7 µM: [23]
67.5 µM: [26]
23.1 µM: [59]
not listed: [6] | [8] | [19] | [44]
> 100 µM: all other assays above

CC1(C)C(CC(=O)O)CCCC1CC(=O)O (centres undefined)
not listed: [12] | [13] | [26] | [28] | [29] | [34] | [36] | [53] | [59]
> 100 µM: all other assays above
